Measurements reported in patent US5518735A, “Meta-substituted phenylalanine derivatives” (priority 1990, dated 1996).
Where a name gives a salt, the structure may show the parent alone.

Tests used:
factor XIIa = target: T1, factor XIIa (Homo sapiens, UniProt P00748); experiment: Inhibition of factor XIIa (Ki); type: biochemical; conditions: Table 26
T1 construct: glandular kallikrein, factor XIIa and plasma kallikrein
T1 sequence (P00748 373-615 limits assumed): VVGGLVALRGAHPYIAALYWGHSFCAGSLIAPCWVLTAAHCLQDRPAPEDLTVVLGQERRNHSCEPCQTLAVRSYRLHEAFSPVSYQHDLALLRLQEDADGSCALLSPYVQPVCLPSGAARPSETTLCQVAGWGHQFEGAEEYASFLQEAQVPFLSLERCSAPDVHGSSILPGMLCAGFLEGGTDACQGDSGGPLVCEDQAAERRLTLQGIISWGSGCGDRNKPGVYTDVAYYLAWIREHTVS

plasmin = target: T2, plasmin (Homo sapiens, UniProt P00747); experiment: Inhibition of plasmin (Ki); type: biochemical; conditions: Table 26
T2 construct: trypsin and the related enzymes thrombin, plasmin, factor Xa, tPA
T2 sequence (P00747 581-810 limits assumed): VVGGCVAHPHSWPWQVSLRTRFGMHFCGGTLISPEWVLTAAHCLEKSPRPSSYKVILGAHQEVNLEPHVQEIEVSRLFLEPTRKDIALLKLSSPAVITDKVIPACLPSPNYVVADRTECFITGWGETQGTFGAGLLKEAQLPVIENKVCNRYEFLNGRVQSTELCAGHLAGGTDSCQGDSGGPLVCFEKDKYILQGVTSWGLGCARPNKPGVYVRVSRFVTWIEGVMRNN
T2 sequence (P00747 97-580 partner limits assumed): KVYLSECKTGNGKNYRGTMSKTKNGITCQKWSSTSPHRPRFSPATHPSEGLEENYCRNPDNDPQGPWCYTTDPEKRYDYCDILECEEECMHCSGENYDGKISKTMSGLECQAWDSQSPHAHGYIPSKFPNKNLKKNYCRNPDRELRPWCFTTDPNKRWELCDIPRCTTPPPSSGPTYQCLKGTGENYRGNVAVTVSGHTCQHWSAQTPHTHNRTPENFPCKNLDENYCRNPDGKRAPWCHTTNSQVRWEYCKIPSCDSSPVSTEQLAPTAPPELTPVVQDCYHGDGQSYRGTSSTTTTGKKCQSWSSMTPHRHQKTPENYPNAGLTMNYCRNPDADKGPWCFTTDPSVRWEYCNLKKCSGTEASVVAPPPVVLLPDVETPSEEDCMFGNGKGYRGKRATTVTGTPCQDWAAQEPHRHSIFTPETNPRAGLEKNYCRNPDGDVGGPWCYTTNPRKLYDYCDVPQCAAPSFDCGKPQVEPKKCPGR

tPA = tPA (Homo sapiens, UniProt P00750); experiment: Inhibition of tPA (Ki); type: biochemical; conditions: Table 26
Sequence of tPA (P00750 36-562): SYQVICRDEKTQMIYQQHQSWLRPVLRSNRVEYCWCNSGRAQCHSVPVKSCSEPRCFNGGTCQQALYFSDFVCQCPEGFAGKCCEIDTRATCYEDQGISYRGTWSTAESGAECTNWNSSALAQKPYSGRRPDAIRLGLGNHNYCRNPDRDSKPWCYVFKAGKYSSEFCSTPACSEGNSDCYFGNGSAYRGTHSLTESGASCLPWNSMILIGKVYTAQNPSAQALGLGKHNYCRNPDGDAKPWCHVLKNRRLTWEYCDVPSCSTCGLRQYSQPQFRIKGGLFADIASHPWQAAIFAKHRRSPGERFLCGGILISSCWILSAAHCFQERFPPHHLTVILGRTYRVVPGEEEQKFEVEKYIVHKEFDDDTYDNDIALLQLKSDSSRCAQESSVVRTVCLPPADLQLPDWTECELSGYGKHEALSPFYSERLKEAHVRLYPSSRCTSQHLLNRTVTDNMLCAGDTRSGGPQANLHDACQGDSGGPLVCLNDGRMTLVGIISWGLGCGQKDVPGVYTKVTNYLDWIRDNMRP

human plasma = conditions: in vitro, FIG. 4
Protocol: Various coagulation tests were used in vitro to determine the efficacy of the inhibitors towards the thrombin-induced coagulation of its natural substrate fibrinogen. For that purpose, the thrombin time (TT), the activated partial thromboplastin time (aPTT) and the prothrombin time (PT, Quick value) were determined in human plasma.

[1] = Plasma concentration in rats after oral administration (HPLC); conditions: rat, plasma, po, 100 mg/kg
Protocol: (§1) For the pharmacokinetic characterization, the plasma concentration of selected derivatives was determined in rats after intravenous (i.v.), subcutaneous (s.c.) and peroral (p.o.) application according to the following three-step procedure:
(§2) 1. A physiological NaCl solution of the substance to be tested was submitted to high pressure liquid chromatography (HPLC) in order to determine its characteristic substance-specific retention time with the chosen test conditions.
(§3) 2. The substance to be tested was diluted in vitro in rat plasma. This solution was also submitted to HPLC to see whether the characteristic peak of the substance once again appeared at the substance-specific retention time.
(§4) 3. […] Blood samples were taken at time intervals of 15 minutes, from which plasma samples were prepared by centrifugation; those samples were also submitted to HPLC to see whether the characteristic peak of the substance appeared again at the substance-specific retention time.

[2] = Plasma concentration in rats after subcutaneous administration (HPLC); conditions: rat, plasma, sc, 5 mg/kg
Protocol: as §1, §2, §3, §4

factor Xa = factor Xa (Bos taurus, UniProt P00743); experiment: Inhibition of factor Xa (dissociation constant Ki); type: biochemical; conditions: Tables 19-25; read-out: Ki, Factor Xa
Sequence of factor Xa (P00743 234-492 limits assumed): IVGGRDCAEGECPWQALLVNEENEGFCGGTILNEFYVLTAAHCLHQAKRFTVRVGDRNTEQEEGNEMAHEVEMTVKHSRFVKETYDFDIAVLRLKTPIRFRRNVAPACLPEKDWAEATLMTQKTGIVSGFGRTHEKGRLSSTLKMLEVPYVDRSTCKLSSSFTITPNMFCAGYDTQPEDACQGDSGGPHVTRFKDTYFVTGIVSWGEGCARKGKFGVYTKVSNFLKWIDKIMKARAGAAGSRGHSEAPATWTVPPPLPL
Sequence of factor Xa (P00743 41-180 partner limits assumed): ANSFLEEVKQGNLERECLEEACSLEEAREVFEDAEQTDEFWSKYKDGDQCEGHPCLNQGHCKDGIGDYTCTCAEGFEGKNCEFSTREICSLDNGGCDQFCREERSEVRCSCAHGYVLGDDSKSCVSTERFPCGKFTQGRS

thrombin = thrombin (Bos taurus, UniProt P00735); experiment: Inhibition of thrombin (dissociation constant Ki); type: biochemical
plasma kallikrein = target: T3, plasma kallikrein (Homo sapiens, UniProt P03952); experiment: Inhibition of plasma kallikrein (Ki); type: biochemical; conditions: Table 26
T3 construct: glandular kallikrein, factor XIIa and plasma kallikrein
T3 sequence (P03952 391-638 limits assumed, species assumed): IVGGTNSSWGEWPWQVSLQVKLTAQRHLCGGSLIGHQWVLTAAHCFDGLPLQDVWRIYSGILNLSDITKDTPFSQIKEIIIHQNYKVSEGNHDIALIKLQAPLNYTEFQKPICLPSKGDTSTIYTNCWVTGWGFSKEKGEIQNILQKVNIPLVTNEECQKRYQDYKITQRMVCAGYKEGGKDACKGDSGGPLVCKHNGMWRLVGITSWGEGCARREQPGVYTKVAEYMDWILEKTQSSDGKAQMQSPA
T3 sequence (P03952 20-390 partner limits assumed, species assumed): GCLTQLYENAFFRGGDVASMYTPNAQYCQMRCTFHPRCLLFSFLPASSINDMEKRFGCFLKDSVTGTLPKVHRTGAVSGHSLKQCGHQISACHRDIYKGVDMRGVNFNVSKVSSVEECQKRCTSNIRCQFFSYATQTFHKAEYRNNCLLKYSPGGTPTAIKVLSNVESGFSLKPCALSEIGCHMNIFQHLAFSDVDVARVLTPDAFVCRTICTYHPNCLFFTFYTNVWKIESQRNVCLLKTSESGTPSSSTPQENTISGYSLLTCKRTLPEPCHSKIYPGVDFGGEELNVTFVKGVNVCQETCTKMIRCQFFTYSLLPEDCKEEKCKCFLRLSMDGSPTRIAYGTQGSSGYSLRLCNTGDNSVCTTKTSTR

in vivo = conditions: mouse
[3] = Plasma concentration in rats after intravenous administration (HPLC); conditions: for pharmacokinetic properties: in words, compared with NAPAP; for Concentration in plasma: i.v. 1 mg/kg
Protocol: as §1, §2, §3, §4

glandular kallikrein = glandular kallikrein (Sus scrofa, UniProt P00752); experiment: Inhibition of glandular kallikrein (Ki); type: biochemical; conditions: Table 26; read-out: Ki, Gland. Kallikrein
Sequence of glandular kallikrein (P00752 8-246): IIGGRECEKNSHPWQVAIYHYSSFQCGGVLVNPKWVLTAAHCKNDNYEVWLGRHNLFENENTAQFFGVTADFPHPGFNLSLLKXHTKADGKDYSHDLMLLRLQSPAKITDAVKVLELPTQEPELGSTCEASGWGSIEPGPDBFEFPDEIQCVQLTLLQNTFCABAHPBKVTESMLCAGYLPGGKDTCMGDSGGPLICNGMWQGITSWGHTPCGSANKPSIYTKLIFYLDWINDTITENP

trypsin = target: T4, trypsin (Bos taurus, UniProt P00760); experiment: Inhibition of trypsin (Ki); type: biochemical; conditions: Table 26
T4 sequence (P00760 24-246): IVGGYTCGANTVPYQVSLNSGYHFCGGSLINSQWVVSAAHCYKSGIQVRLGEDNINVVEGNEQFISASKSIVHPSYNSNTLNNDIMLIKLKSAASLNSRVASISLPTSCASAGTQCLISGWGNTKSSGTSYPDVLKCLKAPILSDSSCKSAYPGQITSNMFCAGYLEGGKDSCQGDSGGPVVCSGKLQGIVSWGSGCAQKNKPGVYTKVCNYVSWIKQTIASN

[4] = system: thrombin-induced plasma coagulation; experiment: Anticoagulant effect in vivo, thrombin-induced plasma coagulation of plasma of treated rats; set-up: species or system rat; conditions: after i.v., s.c. and p.o. administration; FIG. 5
Protocol: After i.v., s.c. and p.o. administration of the compounds to be tested, the anticoagulant effect was determined in plasma of experimental animals (illustrated for compound 123 in FIG. 5).

[5] = cited from earlier work

Compound: CC1CCN(C(=O)C(Cc2cccc(C(=N)N)c2)NS(=O)(=O)c2ccc3ccccc3c2)CC1 (racemic) [Compound 34]
- Ki (factor XIIa): > 1000 µM
- Ki (plasmin): 4 µM
- Ki (tPA): 460 µM
- influence on prothrombin time (PT) (human plasma): obtained by higher inhibitor concentrations

Compound: N=C(NO)c1cccc(CC(NS(=O)(=O)c2ccc3ccccc3c2)C(=O)N2Cc3ccccc3CC2C(=O)O)c1 (racemic) [Compound 190, N-α-(2-Naphthylsulfonyl)-3-oxamidino-(D,L)-phenylalanyl-1,2,3,4-tetrahydroisoquinoline-3-carboxylic acid hydroiodide]
- Ki (factor XIIa): 460 µM
- Ki (plasmin): 120 µM
- concentration at 0.25 h [1]: 0.481 µg/mL
- concentration at 0.5 h [1]: 1.11 µg/mL
- concentration at 0.75 h [1]: 0.796 µg/mL
- concentration at 1 h [1]: 0.574 µg/mL
- concentration at 2 h [1]: 0.542 µg/mL
- concentration at 3 h [1]: 0.217 µg/mL
- concentration at 4 h [1]: 0.113 µg/mL
- concentration at 5 h [1]: 0.05 µg/mL
- concentration at 0.25 h [2]: 0.34 µg/mL
- concentration at 0.5 h [2]: 0.33 µg/mL
- concentration at 0.75 h [2]: 0.374 µg/mL
- concentration at 1 h [2]: 0.492 µg/mL
- concentration at 1.5 h [2]: 0.354 µg/mL
- concentration at 2 h [2]: 0.27 µg/mL
- concentration at 3 h [2]: 0.165 µg/mL
- concentration at 4 h [2]: 0.152 µg/mL
- concentration at 5 h [2]: 0.138 µg/mL
- concentration at 6 h [2]: 0.126 µg/mL
- Ki (factor Xa): 130 µM
- Ki (thrombin): 2.4 µM
- Ki (plasma kallikrein): > 1000 µM
- Ki (tPA): > 1000 µM
- LD50 at 168 h (in vivo; iv): > 150 mg/kg
- LD50 at 168 h (in vivo; po): > 3000 mg/kg
- pharmacokinetic properties [3]: improved pharmacokinetic properties
- Concentration in plasma ([3]; rat, 60 min): 0 µg/mL
- concentration at 2 min ([3]; rat, plasma, iv, 1 mg/kg): 3.26 µg/mL
- concentration at 5 min ([3]; rat, plasma, iv, 1 mg/kg): 1.61 µg/mL
- concentration at 10 min ([3]; rat, plasma, iv, 1 mg/kg): 0.806 µg/mL
- concentration at 0.25 h ([3]; rat, plasma, iv, 1 mg/kg): 0.496 µg/mL
- concentration at 0.5 h ([3]; rat, plasma, iv, 1 mg/kg): 0.477 µg/mL
- concentration at 0.75 h ([3]; rat, plasma, iv, 1 mg/kg): 0.134 µg/mL
- Ki (glandular kallikrein): > 1000 µM
- Ki (trypsin): 27 µM

Compound: N=C(N)Nc1cccc(CC(NS(=O)(=O)c2ccc3ccccc3c2)C(=O)N2CCCCC2)c1 (racemic) [Compound 207, N-α-(2-Naphthylsulfonyl)-3-quanidino-(D,L)-phenylalanine-piperidide hydrochloride]
- Ki (factor XIIa): > 1000 µM
- Ki (plasmin): 17 µM
- Ki (factor Xa): 107 µM
- Ki (thrombin): 0.4 µM
- Ki (plasma kallikrein): > 1000 µM
- Ki (tPA): > 1000 µM
- Ki (glandular kallikrein): > 1000 µM
- Ki (trypsin): 4.1 µM

Compound: N=C(N)c1cccc(C[C@H](NS(=O)(=O)c2ccc3ccccc3c2)C(=O)N2CCC[C@@H]2C(=O)O)c1 [Compound 123, N-α-(2-Naphthylsulfonyl)-3-amidino-(L)-phenylalanyl-(D)-proline hydrochloride]
- Ki (factor XIIa): > 1000 µM
- Ki (plasmin): 95 µM
- concentration at 0.25 h [1]: 0.23 µg/mL
- concentration at 0.5 h [1]: 0.17 µg/mL
- concentration at 1 h [1]: 0.1 µg/mL
- concentration at 1.5 h [1]: 0.133 µg/mL
- concentration at 3 h [1]: 0.096 µg/mL
- concentration at 4 h [1]: 0.067 µg/mL
- concentration at 0.25 h [2]: 0.792 µg/mL
- concentration at 0.5 h [2]: 1.34 µg/mL
- concentration at 0.75 h [2]: 1.38 µg/mL
- concentration at 1.5 h [2]: 1.78 µg/mL
- concentration at 2 h [2]: 1.6 µg/mL
- concentration at 3 h [2]: 1.14 µg/mL
- concentration at 4 h [2]: 0.927 µg/mL
- Ki (factor Xa): 220 µM
- Ki (thrombin): 0.68 µM
- Ki (plasma kallikrein): 59 µM
- Ki (tPA): 300 µM
- LD50 at 168 h (in vivo; iv): 188 mg/kg
- LD50 at 168 h (in vivo; po): > 3000 mg/kg
- anticoagulant / antithrombin effect in plasma of experimental animals [4]: the antithrombin effect can be detected in the clotting test
- pharmacokinetic properties [3]: improved pharmacokinetic properties
- Concentration in plasma ([3]; rat, 240 min): 0 µg/mL
- concentration at 2 min ([3]; rat, plasma, iv, 1 mg/kg): 2.33 µg/mL
- concentration at 5 min ([3]; rat, plasma, iv, 1 mg/kg): 1.18 µg/mL
- concentration at 10 min ([3]; rat, plasma, iv, 1 mg/kg): 0.66 µg/mL
- concentration at 0.25 h ([3]; rat, plasma, iv, 1 mg/kg): 0.44 µg/mL
- concentration at 0.5 h ([3]; rat, plasma, iv, 1 mg/kg): 0.26 µg/mL
- concentration at 0.75 h ([3]; rat, plasma, iv, 1 mg/kg): 0.185 µg/mL
- concentration at 1 h ([3]; rat, plasma, iv, 1 mg/kg): 0.16 µg/mL
- concentration at 1.5 h ([3]; rat, plasma, iv, 1 mg/kg): 0.068 µg/mL
- concentration at 2 h ([3]; rat, plasma, iv, 1 mg/kg): 0.032 µg/mL
- concentration at 3 h ([3]; rat, plasma, iv, 1 mg/kg): 0.022 µg/mL
- Ki (glandular kallikrein): > 1000 µM
- Ki (trypsin): 0.96 µM

Compound: COC(=O)[C@H]1CCCN1C(=O)[C@H](Cc1cccc(C(=N)N)c1)NS(=O)(=O)c1ccc2ccccc2c1 [Compound 124, N-α-(2-Naphthylsulfonyl)-3-amidino-(L)-phenylalanyl-(D)-proline-methyl ester hydrochloride]
- Ki (factor XIIa): 600 µM
- Ki (plasmin): 11 µM
- Ki (factor Xa): 104 µM
- Ki (thrombin): 0.27 µM
- Ki (plasma kallikrein): 29 µM
- Ki (tPA): 225 µM
- LD50 at 168 h (in vivo; iv): 80 mg/kg
- LD50 at 168 h (in vivo; po): > 3000 mg/kg
- Ki (glandular kallikrein): > 1000 µM
- Ki (trypsin): 3.4 µM

Compound: CN[C@H](Cc1ccccc1)C(=O)N1CCC[C@H]1C(=O)N[C@H](C=O)CCCN=C(N)N [N-methyl-D-Phe-Pro-Arg-H]
- absorption after oral administration [5]: absorption after oral administration has so far only been observed

Compound: BOC-D-Phe-Pro-Boro-Arg-C10 H16
- absorption after oral administration [5]: absorption after oral administration has so far only been observed
